Measured values taken from US7968526B2, “Antisense oligonucleotides directed to ribonucleotide reductase R2 and uses thereof in the treatment of cancer” (Lorus Therapeutics Inc., priority 2003, dated 2011).
Entries after “also recorded” stand apart in the source; their conditions may differ.

Key:
[1] = system: MDA-MB435-To.1 human Taxol-resistant breast adenocarcinoma cells; test: MDA-MB435-To.1 Taxol-resistant breast adenocarcinoma, fat pad, CB-17 SCID mice, combination with Cisplatin (2.6); assay type: in vivo, human cells in mice; conditions: SEQ ID NO:1 10 mg/kg i.v. every other day
Description: BxPC-3 is a gemcitabine resistant call line. […] Gemcitabine was administered intravenously every three days at a dose of 100 mg/kg. Antitumour activities were estimated by the inhibition of tumour volume, which was measured with caliper. Each point represents mean tumour volume calculated from 10 animals per experimental group. […] Hela S3 is a hydroxyurea resistant cell line. […] Hydroxyurea was administered intraperitoneally every day at a dose of 250 mg/kg for 10 days. Cisplatin was administered intravenously once a week for three weeks at a dose of 4 mg/kg. Antitumour activities were estimated by the inhibition of tumour volume, which was measured with caliper. Each point represents mean tumour volume calculated from 10 animals per experimental group. […] Cisplatin was administered intravenously once a week for three weeks at a dose of 4 mg/kg. Taxol was administered intravenously once a week for three weeks at a dose of 10 mg/kg. Antitumour activities were estimated by the inhibition of tumour volume, which was measured with caliper. Each point represents mean tumour volume calculated from 10 animals per experimental group. […] Taxol was administered i.p. once a week at a dose of 10 mg/kg. Antitumour activities were estimated by the inhibition of tumour volume (FIG. 12A), which was measured with calipers. Each point represents mean tumour volume calculated from 10 animals per experimental group. […] Antitumour activities were estimated by the inhibition of tumour volume, which was measured with caliper. Each point represents mean tumour volume calculated from 9-10 animals per experimental group. […] Antitumour activities were estimated by the inhibition of tumour volume, which was measured with caliper. Each point represents mean tumour volume calculated from 10 animals per experimental group. […] Anti-tumour activity was estimated by the inhibition of tumour volume, which was measured with caliper. Each point represents mean tumour volume calculated from 10 animals per experimental group. […] Antitumour activities were estimated by the inhibition of tumour volume, which was measured with caliper. […]

[2] = system: Caki-1 human kidney cancer cells; test: Caki-1 kidney tumour xenograft in SCID mice, controls and chemotherapeutics (Example 7); assay type: in vivo, human cells in mice
Text: CD-1 athymic female nude mice, BALB/c nu/nu nude mice, SCID, and SCID beige mice were purchased from Charles River Laboratories (Montreal, Canada) and experiments were typically initiated when the mice were 6-7 weeks old. […] Each experimental group typically contained 10 mice. After the size of tumour reached a mean tumour volume of 50-100 mm^3, treatment was initiated. […] Anti-tumour activity was estimated by the measurement of tumour volume with a calliper at two-three day intervals. Tumour volume was calculated by a formula L×W×H/2, where L indicates length, W indicates width and H indicates height. Within 24 hours after the last treatment, the animals were sacrificed and tumour and body weights were measured. Results of statistical analyses of the data are presented as P values in the figure legends.
Three additional treatment groups received: 5-FU (13 mg/kg/day×5), vinblastine (1 mg/kg/week) and gemcitabine (100 mg/kg/week). […] Calliper measurements at 1-week intervals were used to calculate tumour volumes. Each point in FIG. 28A represents mean tumour volume calculated from 10 animals per experimental group (with the exception of SEQ ID NO:1 which was 8 animals).
After 49 days the mice were sacrificed and the tumours weighed. Each bar represents the mean tumour weight and standard error calculated for each treatment group.

[3] = Acute intravenous toxicity study in the monkey; assay type: in vivo; conditions: rhesus monkeys
Description: Intravenous infusion of SEQ ID NO:1 for 24 hours at doses up to 80 mg/kg/day (984 mg/m^2/day) was well-tolerated by rhesus monkeys. […] These effects indicate an apparent inhibition of the intrinsic coagulation pathway, and modest activation of the alternative complement pathway, respectively. These treatment-related changes were typical class effects of phosphorothioate oligonucleotide administration.

[4] = 21-day intravenous toxicity study in the rat with a 21-day recovery; assay type: in vivo, Sprague-Dawley rats
Description: SEQ ID NO:1 was administered to Sprague-Dawley rats via intravenous bolus injection every second day up to 21 days, with a 21-day recovery period. The study design included 4 treatment groups; vehicle controls, 2 mg/kg, 10 mg/kg, and 50 mg/kg. The main study group consisted of 10 animals/sex, and an additional 5 animals/sex were included in the control and high-dose groups for a recovery phase. Satellite animals (6/sex/group) were also included for toxicokinetic analysis.

[5] = 50 mg/kg i.v. bolus every second day up to 21 days

5′-GGCTAAATCGCTCCACCAAG-3′ (all phosphorothioate, sugars by position and methylation of C not given here) [SEQ ID NO: 1, fully phosphorothioated antisense oligonucleotide that hybridizes to the coding region of R2 mRNA]
Tumour weight as % of saline control ([1]; MDA-MB435-To.1 (breast), Taxol resistant, CB-17/SCID, Cisplatin 4 mg/kg i.v. weekly x4): 37%
Antitumour effect (FIG. 14) ([1]; MDA-MB435-To.1 Taxol-resistant, CB-17 SCID mice, Cisplatin 4 mg/kg i.v. weekly): significant reduction of tumour weight compared to saline control; also recorded: superior to the inhibitory effects observed with Cisplatin
Effect on tumour growth (volume and weight) ([2]; Caki-1, SCID mice, oligonucleotides 10 mg/kg/2 days i.v.): exceptional efficacy against renal cell carcinomas; also recorded: dramatic inhibition in growth of Caki-1 and A498 renal tumours; also recorded: superior to any of these compounds
Time of treatment to complete tumour regression ([2]; renal tumours, SCID mice, 10 mg/kg/2 days i.v., day 28 post implantation of tumour): ≤ 3 weeks
Clinical signs, body weight, blood pressure, heart rate, serum biochemistry, haematology ([3]; 24 hour i.v. infusion, any dose): No treatment-related clinical signs or changes in body weight, blood pressure, heart rate, serum biochemistry or haematology parameters
Deaths ([3]; 24 hour i.v. infusion, doses up to 80 mg/kg/day): no deaths during the study
Complement split product Bb ([3]; end of infusion at 20, 40, and 80 mg/kg/day): slight treatment-related increases in complement split product Bb
APTT ([3]; end of infusion at 40 and 80 mg/kg/day): Mild treatment-related changes in APTT
Tolerability ([3]; intravenous infusion for 24 hours at doses up to 80 mg/kg/day (984 mg/m^2/day)): well-tolerated
Toxicity findings ([4]; 2 mg/kg i.v. bolus every second day up to 21 days): no remarkable effects on any of the above parameters
Toxicity findings ([4]; 10 mg/kg i.v. bolus every second day up to 21 days): no clinical signs, no effects on body weight or food consumption, a lesser degree of anemia and thrombocytopenia, and only minor changes in a few serum chemistry parameters
Mortality [4, 5]: A single mortality
Toxicity findings [4, 5]: various adverse clinical signs, a decrement in body weight gain (associated with diminished food consumption), lymphocytosis, moderate anemia and thrombocytopenia, and various relatively mild changes in serum chemistry parameters
Target organs (histopathology) ([4]; 10 and 50 mg/kg): lymphoid system, kidneys, and liver
no-adverse-effect-level (NOAEL) ([4]; 21-day study): 2 mg/kg/day
